# Target: T1, mouse c-fms (Mus musculus, UniProt P09581)
# T1 construct: Macrophage-like cell line BAC-1.2F5 which expresses c-fms as a M-CSF receptor on cell membranes; endogenous in cells; host or cells: BAC-1.2F5 mouse macrophage-like cell line
# T1 sequence (P09581 20-977): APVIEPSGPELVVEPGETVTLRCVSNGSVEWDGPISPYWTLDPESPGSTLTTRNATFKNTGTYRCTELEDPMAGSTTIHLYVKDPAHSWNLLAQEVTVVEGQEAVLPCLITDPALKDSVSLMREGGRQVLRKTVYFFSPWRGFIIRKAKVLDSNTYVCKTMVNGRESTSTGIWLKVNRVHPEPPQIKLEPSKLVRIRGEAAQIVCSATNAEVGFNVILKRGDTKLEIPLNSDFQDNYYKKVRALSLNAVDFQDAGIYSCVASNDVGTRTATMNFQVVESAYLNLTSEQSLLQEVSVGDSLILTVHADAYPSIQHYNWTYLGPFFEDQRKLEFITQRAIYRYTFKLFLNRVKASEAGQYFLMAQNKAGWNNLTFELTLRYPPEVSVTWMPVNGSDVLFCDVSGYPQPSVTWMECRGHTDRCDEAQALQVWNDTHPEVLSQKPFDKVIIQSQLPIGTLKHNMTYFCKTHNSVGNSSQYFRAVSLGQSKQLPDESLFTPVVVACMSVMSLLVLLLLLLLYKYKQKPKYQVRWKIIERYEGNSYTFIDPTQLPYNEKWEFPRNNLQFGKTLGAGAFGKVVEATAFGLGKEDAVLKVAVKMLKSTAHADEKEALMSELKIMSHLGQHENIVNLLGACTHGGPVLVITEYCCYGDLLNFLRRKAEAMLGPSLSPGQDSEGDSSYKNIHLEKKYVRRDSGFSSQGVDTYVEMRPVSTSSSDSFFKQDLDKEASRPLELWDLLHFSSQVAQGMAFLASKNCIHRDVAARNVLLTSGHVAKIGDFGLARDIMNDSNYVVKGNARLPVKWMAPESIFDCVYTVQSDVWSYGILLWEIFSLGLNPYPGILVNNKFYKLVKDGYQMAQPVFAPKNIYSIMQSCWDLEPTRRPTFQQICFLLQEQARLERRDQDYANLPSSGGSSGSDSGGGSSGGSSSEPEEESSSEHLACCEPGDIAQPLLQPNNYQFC
# Assay: Inhibition of c-fms autophosphorylation in macrophage-like cell line BAC-1.2F5 by M-CSF stimulation (ELISA)
# Format: cell-based
# Conditions: BAC-1.2F5 cells, human recombinant M-CSF 50 ng/ml, read-out: c-fms autophosphorylation 50% inhibitory concentration (IC50)
# Experimental: Macrophage-like cell line BAC-1.2F5 which expresses c-fms as a M-CSF receptor on cell membranes (CLAUDIA M. et al., J. Cell. Physiol., 130, 420-427 (1987), “Isolation and Characterization of a Cloned Growth Factor Dependent Macrophage Cell Line, BAC1.2F5”) was cultured at 37° C. in a DMEM medium containing L-cell supernatant and 10% fetal calf serum (GIBCO BRL) in a 5% CO2 incubator until about 50 to 70% confluent. The harvested cells were inoculated into wells, each containing the same medium, in a collagen type I coat 96-well flat-bottom plate in an amount of 5.0×10^4 per well, and cultured at 37° C. for 12 hr. Thereafter, the medium was replaced with a DMEM medium containing a 0.1% fetal calf serum and cultured for 12 hr. Thereafter, a test compound dissolved in dimethyl sulfoxide was added to each well, and cells were incubated at 37° C. for one hr. Human recombinant M-CSF was added to a final concentration of 50 ng/ml, and cells were stimulated at 37° C. for 6 min. After the medium was removed, 50 μl of a solubilization buffer (20 mM HEPES (pH 7.4), 150 mM NaCl, 0.2% Triton X-100, 10% glycerol, 5 mM sodium orthovanadylate, 5 mM disodium ethylenediaminetetraacetate, and 2 mM Na4P2O7) was added thereto. The mixture was shaken at 4° C. for 2 hr to prepare a cell extract as an assay sample which was then used for an ELISA assay.
# The plate for the ELISA assay was prepared as follows. Phosphate buffered saline (50 μl, pH 7.4) containing 5 μg/ml of anti-phospho-tyrosine antibody (PY20; Transduction Laboratories) was added to a microplate for ELISA (Maxisorp; purchased from NUNC), followed by standing at 4° C. overnight to be immobilized on the wells. Thereafter, each well was washed twice with 200 μl of a Ca- and Mg-free phosphate buffer containing 0.1% Tween-20 (hereinafter referred to as “PBS-T”), and 200 μl of a blocking solution (Dainippon Pharmaceutical Co. Ltd.: BlockAce) was added to each well, and the wells were then allowed to stand at room temperature for 2 hr for blocking.
# Separately, phosphate buffered saline (50 μl, pH 7.4) containing 5 μg/ml of anti-phospho-tyrosine antibody (PY20; Transduction Laboratories) was added to a microplate for ELISA (Maxisorp; purchased from NUNC), followed by standing at 4° C. overnight to form a solid phase on the wells. After washing of the plate, 300 μl of a blocking solution was added, followed by standing at room temperature for 2 hr to perform blocking. After washing, the whole quantity of the cell extract was transferred to the wells, and the plate was then allowed to stand at 4° C. overnight. After washing, anti-c-fms antiserum (Upstate Biotechnology, Inc.) was allowed to react at room temperature for one hr, and, after washing, a peroxidase-labeled anti-rabbit Ig antibody (Amersham) was allowed to react at room temperature for one hr. After washing, a chromophoric substrate for peroxidase (Sumitomo Bakelite Co., Ltd.) was added thereto to initiate a reaction. After a suitable level of color development, a reaction termination solution was added to stop the reaction, and the absorbance at 450 nm was measured with a microplate reader. The c-fms phosphorylation activity for each well was determined by presuming the absorbance without the addition of the test compound and with the addition of M-CSF to be 100% c-fms phosphorylation activity and the absorbance without the addition of the test compound and M-CSF to be 0% c-fms phosphorylation activity. The concentration of the test compound was varied on several levels, the c-fms phosphorylation inhibitory rate was determined for each case, and the concentration of the test compound necessary for inhibiting 50% of c-fms phosphorylation (IC50) was calculated.
row,Structure (SMILES),IC50 [µM]
1,"COc1cc2c(Oc3ccc(NC(=O)NC(C)c4ccc(F)cc4F)cc3F)ccnc2cc1OCCCN1CCOCC1 (centres unmarked) [Example 66, N-[1-(2,4-Difluorophenyl)ethyl]-N′-(3-fluoro-4-{[6-methoxy-7-(3-morpholinopropoxy)-4-quinolyl]oxy}phenyl)urea]",0.0147
2,"COc1cc2c(Oc3ccc(NC(=O)NC(C)c4ccc(F)cc4F)c(F)c3)ccnc2cc1OCCCN1CCOCC1 (centres unmarked) [Example 69, N-[1-(2,4-Difluorophenyl)ethyl]-N′-(2-fluoro-4-{[6-methoxy-7-(3-morpholinopropoxy)-4-quinolyl]oxy}phenyl)urea]",0.0115
3,"COc1cc2nccc(Oc3cc(C)c(NC(=O)N[C@@H](C)c4nccs4)cc3C)c2cc1OC [Example 86, N-{4-[(6,7-Dimethoxy-4-quinolyl)oxy]-2,5-dimethylphenyl}-N′-[(1S)-1-(1,3-thiazol-2-yl)ethyl]urea]",0.0125
4,"COc1cc2nccc(Oc3ccc(NC(=O)N[C@@H](C)c4ccc(F)cc4)c(C)c3)c2cc1OC [Example 14, N-{4-[(6,7-Dimethoxy-4-quinolyl)oxy]-2-methylphenyl}-N′-[(1S)-1-(4-fluorophenyl)ethyl]urea]",0.013
5,"COc1cc(Oc2ccnc3cc(OC)c(OC)cc23)ccc1NC(=O)NC(C)c1ncc(C)s1 (centres unmarked) [Example 105, N-{4-[(6,7-Dimethoxy-4-quinolyl)oxy]-2-methoxyphenyl}-N′-[1-(5-methyl-1,3-thiazol-2-yl)ethyl]urea]",0.0127
6,"COc1cc2nccc(Oc3ccc(NC(=O)N[C@@H](C)c4nccs4)c(C(F)(F)F)c3)c2cc1OC [Example 84, N-[4-[(6,7-Dimethoxy-4-quinolyl)oxy]-2-(trifluoromethyl)phenyl]-N′-[(1S)-1-(1,3-thiazol-2-yl)ethyl]urea]",0.0102
7,"COc1cc2nccc(Oc3cc(C)c(NC(=O)N[C@@H](C)c4ccc(F)cc4)cc3C)c2cc1OC [Example 8, N-{4-[(6,7-Dimethoxy-4-quinolyl)oxy]-2,5-dimethylphenyl}-N′-[(1S)-1-(4-fluorophenyl)ethyl]urea]",0.0225
8,"COc1cc2nccc(Oc3cc(C)c(NC(=O)N[C@H](C)c4nccs4)cc3C)c2cc1OC [Example 87, N-{4-[(6,7-Dimethoxy-4-quinolyl)oxy]-2,5-dimethylphenyl}-N′-[(1R)-1-(1,3-thiazol-2-yl)ethyl]urea]",0.0265
9,"COc1cc2nccc(Oc3ccc(NC(=O)N[C@H](C)c4ccc(F)cc4)cc3Cl)c2cc1OC [Example 12, N-{3-Chloro-4-[(6,7-dimethoxy-4-quinolyl)oxy]phenyl}-N′-[(1R)-1-(4-fluorophenyl)ethyl]urea]",0.0109

# These reach a lower IC50. Values come first.
row,IC50 [µM],Structure (SMILES)
1,0.0077,"COc1cc2nccc(Oc3ccc(NC(=O)NC(C)c4ccc(F)cc4)cc3OC)c2cc1OC (centres unmarked) [Example 22, N-{4-[(6,7-Dimethoxy-4-quinolyl)oxy]-3-methoxyphenyl}-N′-[1-(4-fluorophenyl)ethyl]urea]"
2,0.0023,"COc1cc2nccc(Oc3ccc(NC(=O)N[C@@H](C)c4ccc(F)cc4)c(F)c3)c2cc1OC [Example 29, N-{4-[(6,7-Dimethoxy-4-quinolyl)oxy]-2-fluorophenyl}-N′-[(1S)-1-(4-fluorophenyl)ethyl]urea]"
3,0.0039,"COc1cc(Oc2ccnc3cc(OC)c(OC)cc23)ccc1NC(=O)N[C@@H](C)c1ccc(F)cc1 [Example 17, N-{4-[(6,7-Dimethoxy-4-quinolyl)oxy]-2-methoxyphenyl}-N′-[(1S)-1-(4-fluorophenyl)ethyl]urea]"
4,0.0049,"COc1cc2nccc(Oc3ccc(NC(=O)N[C@H](C)c4nccs4)c(F)c3)c2cc1OC [Example 72, N-{4-[(6,7-Dimethoxy-4-quinolyl)oxy]-2-fluorophenyl}-N′-[(1R)-1-(1,3-thiazol-2-yl)ethyl]urea]"
5,0.0055,"COc1cc2nccc(Oc3ccc(NC(=O)N[C@H](C)c4ccccc4OC)cc3)c2cc1OC [Example 52, N-{4-[(6,7-Dimethoxy-4-quinolyl)oxy]phenyl}-N′-[(1R)-1-(2-methoxyphenyl)ethyl]urea]"

# Source: patent US7598258B2, “Quinoline derivatives and quinazoline derivatives inhibiting autophosphorylation of macrophage colony stimulating factor receptor” (Kirin Beer Kabushiki Kaisha, priority 2002, dated 2009)
